Each structure is given as a SMILES string.

Type in all cases: in vivo
In assay [1] the test system is Valencia orange. The experiment in a line: Fruit pull-force reduction after spraying trees, Valencia orange. Conditions: for % reduction in fruit pull force, day 5: 0.125% Kinetic, day 5, mean. The procedure: (§1) Data are the means of 10 replicate branches, with 10 fruit/branch. Bars above and below the means indicate standard error of the mean.
(§2) Solutions of COR were prepared that contained 200 mg/L or 300 mg/L of COR dissolved in water and 0.125% Kinetic®. The solution was sprayed until “run-off,” typically about 5 L/tree. […] Under field conditions, canopies should not be sprayed if rainfall is anticipated within 24 hours. For comparison purposes, 200 mg/L to 400 mg/L Ethrel® solutions and a 0.125% Kinetic® solution were applied to trees. After several days, usually 3 to 10, differences in fruit pull-force were measured between COR and other treatments and is an indication of fruit loosening ability. […] Differences in fruit drop were also measured by counting or weighing dropped fruit.

The test system of assay [2] is Valencia orange. The experiment in a line: Fruit drop after spraying trees, Valencia orange. Conditions: for % fruit drop, day 5: day 5, mean. As for the experimental part: as §1, §2
Another assay relates to Hamlin orange. The experiment in a line: Fruit pull-force reduction after spraying trees, Hamlin orange. The following applies: for % reduction in fruit pull force, day 5: day 5, mean. As for the experimental part:
Data are the means of 6 replicate branches, with 10 fruit/branch. Bars above and below the means indicate standard error of the mean.
as §2

[3] abbreviates: COR compositions 200 or 300 mg/L.

With `CC[C@H]1C=C(C(=O)N[C@@]2(C(=O)O)C[C@@H]2CC)[C@H]2CCC(=O)[C@H]2C1` [COR, Coronatine], the “% reduction in fruit pull force, day 5” value with Valencia orange [1] (200 mg/L spray to run-off) was found to be 96.1%; in the assay with Valencia orange [1] (300 mg/L spray to run-off) it was 96.3%; with Hamlin orange (200 mg/L spray to run-off), 55%; in the assay on Hamlin orange (300 mg/L spray to run-off) it was 55.5%. Besides, the “reduction of fruit pull-force” value with Valencia orange [1] (setting [3]) and in the assay with Hamlin orange (setting [3]) was “approximately 95%” throughout. For the same compound, the “% fruit drop, day 5” value was found to be 50% in the assay with Valencia orange [2] (200 mg/L spray to run-off) and 63.3% in the assay on Valencia orange [2] (300 mg/L spray to run-off). Further, the “percentage of fruit drop as compared to Ethrel and the control” value in the assay with Valencia orange [2] (setting [3]) is given as “substantially increased”.

As to `O=P(O)(O)CCCl` [Ethrel ®, 2-chloroethyl phosphonic acid], the figures for the “% reduction in fruit pull force, day 5” value in the assay with Valencia orange [1] (200 mg/L spray to run-off) and in the assay on Hamlin orange (200 mg/L spray to run-off) were 71.7% and 64%, respectively. Besides, the “% fruit drop, day 5” value in the assay with Valencia orange [2] (200 mg/L spray to run-off) is 13.3%.

For the origin of these results see patent publication US6511939B1, “Coronatine as an abscission agent” (priority 2001, dated 2003).
